Assay results taken from patent US10251902B2, “Pharmaceutical composition for treating or preventing neuropsychiatric disease, containing flavone-6-C-glucose derivatives as active ingredients” (priority 2013, dated 2019).

Test system: model of memory impairment induced by scopolamine
Test: Passive avoidance test in scopolamine-induced memory impairment model
Format: in vivo, ICR mice
Settings: for Main Experiment / Passive Avoidance Learning: Table 2, scopolamine 1 mg/Kg i.p.; for Main Experiment: latency 24 h after learning, up to 300 seconds; for Passive Avoidance Learning: latency in learning trial; for latency time extended compared to that of the control 2: main experiment, control 2 = scopolamine
Protocol: An experiment was conducted to confirm effects of swertisin or isoorientin, and extracts of Swertia pseudochinensis or Swertia japonica containing the same prepared in Examples 1 to 3 in treating dementia by using a model of memory impairment induced by scopolamine. Detailed method follows.
Six-week old ICR mice in about 26 g to 28 g (Orientbio Inc, Republic of Korea) were received water and feed without constraint and adapted for 5 days under an environment having about 23±1° C. of temperature, about 60±10% of humidity and 12-hour light/dark cycle (animal laboratory at College of Pharmacy, Kyung-Hee University), and then used for the experiment.
An apparatus for measuring passive avoidance reaction was prepared. The apparatus has 2 separated chambers (the first and second chambers) and there is a guillotine-shaped passage that connects the first chamber and the second chamber. The first chamber was maintained brightly by using a light, and the second chamber was maintained darkly. A grid was installed on the floor of the second chamber. The grid generates 0.5 mA of electric shock for 3 seconds when the laboratory animal moved into the dark chamber.
About 30 minutes later, 1 mg/Kg of scopolamine, which was dissolved in distilled water, was intraperitoneally administered to the drug administration groups 1 to 4 and controls 1 and 2 (Ebert, U. et al., Eur. J. Clin. Invest., 28, pp 944-949, 1998), and 0.9% of saline solution was intraperitoneally administered to the control 3. After 30 minutes, passive avoidance learning was conducted on the drug administration groups 1-4 and controls 1-3. In detail, the mice were located in the first chamber (i.e. bright space) and the passage was open after about 20 seconds of observation time, and then latency time of the mice moving to the second chamber (i.e. dark space) was measured.
Twenty-four hours after the passive avoidance learning, a main experiment was conducted on the drug administration groups 1-4 and controls 1-3. Latency time of the mice of each group moving their 4 legs into the dark space after 10 seconds of observation time from opening of the guillotine-shaped passage was measured up to 300 seconds. It means that the passive avoidance learning and memory are better if the latency time is longer.
(§1) The passive avoidance test was conducted on the drug administration groups 1-4 and controls 1-3 in the same manner as the method explained above except that swertisin, which is one of the flavone-6-C-β-D-glucose derivatives prepared in Example 3, was dissolved in 10% Tween 80 and administered to the drug administration groups 1-4 in amounts of 1.25 mg/kg, 2.5 mg/kg, 5 mg/kg and 10 mg/kg respectively.
as §1, with “Experimental Example 1-1” for “the method explained above”, “isoorientin,” for “swertisin,”
(§2) The passive avoidance test was conducted on the drug administration groups 1-3 and controls 1-3 in the same manner as Experimental Example 1-1 except that a 70% ethanol extract of Swertia japonica prepared in Example 1, was dissolved in 10% Tween and administered to the drug administration groups 1-3 in amounts of 100 mg/kg, 200 mg/kg and 400 mg/kg respectively.
as §2, with “pseudochinensis” for “japonica”, “2,” for “1,”, “Tween 80” for “Tween”

COc1cc2oc(-c3ccc(O)cc3)cc(=O)c2c(O)c1[C@@H]1O[C@H](CO)[C@@H](O)[C@H](O)[C@H]1O [swertisin]
Main Experiment (swertisin 1.25 mg/kg): 67.13 ± 26.08 s | Passive Avoidance Learning (swertisin 1.25 mg/kg): 30.20 ± 14.53 s | Main Experiment (swertisin 2.5 mg/kg): 82.11 ± 35.20 s | Passive Avoidance Learning (swertisin 2.5 mg/kg): 19.10 ± 10.37 s | Main Experiment (swertisin 5 mg/kg): 117.3 ± 44.16 s | Passive Avoidance Learning (swertisin 5 mg/kg): 20.40 ± 10.11 s | Main Experiment (swertisin 10 mg/kg): 117.7 ± 52.28 s | Passive Avoidance Learning (swertisin 10 mg/kg): 29.70 ± 18.76 s | latency time extended compared to that of the control 2 (swertisin 1.25 mg/Kg): about 2 fold | latency time extended compared to that of the control 2 (swertisin 2.5 mg/Kg): about 2.5 fold | latency time extended compared to that of the control 2 (swertisin 5 mg/Kg): about 3 fold | latency time extended compared to that of the control 2 (swertisin 10 mg/Kg): about 3 fold
